“Also recorded” adds a separate entry of the source. Non-standard residues stand in square brackets, D forms with d. Residues, ends and D or L forms follow the SMILES beside them. *: point of attachment. NMeY = CN[C@@H](Cc1ccc(O)cc1)C(=O)O; Agmatine = N=C(N)NCCCCN*; Nle = CCCC[C@H](N)C(=O)O; Orn = NCCC[C@H](N)C(=O)O; Abu = CC[C@H](N)C(=O)O
Assays:
[1] = system: myocardial infarction (Fisher-344 rats); experiment: Immunostaining of heart tissue (pH3, c-kit, arterioles), rat MI model (Example 13); type: in vivo; details: for c-kit (positive cells in the heart) / phospho H3 (positive cells in the heart): 50 μg/kg s.c. twice daily for 4 weeks, mean ± SEM; for number of arterioles: isolectin / SMA22a co-staining of heart sections
Experimental: (§1) Myocardial infarction (MI) was induced by permanent ligation of the left coronary artery in female 6-month-old Fisher-344 rats. Animals were randomly assigned to receive placebo (DMSO+propylene glycol) or one of the GHRH-agonists (JI-38, MR-356/P-20356, MR-409/P-27409, all 50 μg/kg), starting 4 weeks post-MI. All treatment was given subcutaneously twice daily for 4 weeks.
(§2) Paraffin sections were deparaffinized and rehydrated by immersion in xylene followed by a graded series of ethanol. Antigen retrieval was performed by a heat-induced method with citrate buffer (Dako, Carpinteria, Calif.). After blocking with 10% normal donkey serum, sections were incubated with a primary antibody at 37° C. for 1 hour, followed by application of secondary antibody. Omission of the primary antibodies on parallel sections was used as negative control. Nuclei were counterstained with DAPI (Invitrogen, Carlsbad, Calif.). The total numbers of positively-stained cells (c-kit, CD45, phospho-histone H3 [pH3]) were quantified per slide to calculate the number of cells per section on each sample. Morphometric analysis was performed using Adobe Photoshop CS3 (San Jose, Calif.).
Heart sections were co-stained with isolectin (endothelial cell marker) and vascular smooth muscle (SMA22a) to identify arterioles which play a crucial role in cardiac repair. […] An inverse correlation between number of arterioles and infarct size was observed (FIG. 5C).

[2] = system: myocardial infarction (Fisher-344 rats); experiment: Morphometric analysis of infarct size, rat MI model (Example 13); type: in vivo; details: 50 μg/kg s.c. twice daily for 4 weeks; mean ± SEM
Experimental: as §1
Rat hearts were processed using routine histological procedures. Samples were fixed in formalin.
as §2

[3] = system: myocardial infarction (Fischer 344 rats); experiment: Morphometric analysis, percentage of infarcted myocardium (Example 14); type: in vivo, rat; details: vs. placebo, FIG. 8
Experimental: (§3) MI was induced in female 6-month-old Fischer 344 rats by permanent ligation of left ventricular (LV) anterior descending coronary artery. Animals were randomly assigned to receive placebo or one of the following GHRH agonists (MR-356, MR-361, MR-367, MR-403, MR-404, MR-409 and MR-502) starting 2 hours post-surgery. All treatment (50 μg/kg) was given subcutaneously twice daily for 4 weeks. The Institutional Animal Care and Use committee of the University of Miami approved all protocols and experimental procedures.
Slides were prepared with H&E and Masson's trichrome stain to assess cardiac structure and the presence and extent of myocardial scar, respectively. The percentage of infarcted myocardium was calculated.

[4] = system: nitrosoglutathione reductase-/- (GSNOR-/-) mesenchymal stem cells (MSCs); experiment: Tube formation of GSNOR-/- mesenchymal stem cells in Matrigel; type: cell-based, mouse; details: GSNOR-/- MSCs on Matrigel, 6 to 24 hours
Experimental: Bone marrow-derived MSCs isolated from wildtype and GSNOR^−/− mice were grown in endothelial growth media (EGM-2, Lonza Biotech) for a period of 1 week. Cells were harvested by brief trypsinization and plated in 24-well culture dishes (5×10^4 cells/well) pre-coated with 300 μl of Matrigel (BD Biosciences). Cells were incubated in endothelial basal media (Lonza Biotech) supplemented with 0.1% bovine serum albumin, in the presence or absence of GHRH agonist peptides P-20356 and P-27409. After 6 to 24 hours, tube formation potential was quantified in each sample by measuring the number and length of tubes formed using Image J Software (NIH).

GH release = experiment: In vivo endocrine activity, GH release after intravenous administration (Table 8); details: rat, i.v. injection
GHRH receptor = biological target: T1, GHRH receptor (Homo sapiens, UniProt Q02643); experiment: GHRH receptor binding, competition with 125I-labeled JV-1-42, human pituitary membrane homogenates (Table 5); design: Normal human pituitaries were purchased from the National Hormone and Peptide Program; tissue National Hormone and Peptide Program (A.F. Parlow, Harbor-UCLA Medical Center, Torrance, Calif.); host or cells: normal human pituitary, membrane fraction
T1 sequence (Q02643 23-423): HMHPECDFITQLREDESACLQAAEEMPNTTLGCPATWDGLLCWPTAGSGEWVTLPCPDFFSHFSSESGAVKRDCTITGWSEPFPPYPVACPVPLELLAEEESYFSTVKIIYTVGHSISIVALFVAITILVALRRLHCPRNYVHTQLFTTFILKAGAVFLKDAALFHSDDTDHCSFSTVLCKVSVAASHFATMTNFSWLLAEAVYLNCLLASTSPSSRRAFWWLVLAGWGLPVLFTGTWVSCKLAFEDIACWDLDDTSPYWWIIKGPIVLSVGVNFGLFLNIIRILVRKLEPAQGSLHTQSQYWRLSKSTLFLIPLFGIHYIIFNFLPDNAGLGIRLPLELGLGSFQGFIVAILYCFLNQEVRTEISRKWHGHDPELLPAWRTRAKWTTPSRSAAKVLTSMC

[5] = system: myocardial infarction (Fischer 344 rats); experiment: Echocardiography in rat MI model, treatment from 2 hours post-surgery (Example 14); type: in vivo; details: echocardiographic measurements at day 2 post-MI
Experimental: as §3
Longitudinal evaluation of LV remodeling was obtained by echocardiographic measurements between baseline and 4 weeks following MI. Echocardiographic assessments were performed in anesthetized rats (1-2% isoflurane inhalation) using a Vevo-770 echocardiogram (Visual Sonics Inc., Toronto, Ontario, Canada) equipped with 25 MHz transducer. Cardiac dimensions were recorded from M-mode images using averaged measurements from 3 to 5 consecutive cardiac cycles. LV end-diastolic and end-systolic volumes and ejection fraction (EF) were calculated from bi-dimensional long-axis parasternal views taken through the infarcted area. All images were analyzed using Vevo 770 3.0.0 software (Visual Sonics).

Compound | c-kit (positive cells in the heart) [1] | phospho H3 (positive cells in the heart) [1] | number of arterioles [1] | MI size (%) [2] [%] | infarct size (MI %) ([3]; listed as MR-356) | Tube formation [4] | GH releasing potency in vivo relative to JI-38 (=1) (GH release; 5 min after) | GH releasing potency in vivo relative to JI-38 (=1) (GH release; 15 min after) | GH releasing potency in vivo relative to JI-38 (=1) (GH release; 30 min after) | Relative affinity (Binding potency) vs GHRH (GHRH receptor; GHRH(1-29) = 1, Table 5) | Relative affinity (Binding potency) vs JI-38 (GHRH receptor; JI-38 = 1, Table 5) | EF at day 2 post-MI [5] | infarct size (MI %) ([3]; listed as MR-409)
CCCC[C@H](NC(=O)[C@@H](NC(=O)[C@H](CC(=O)O)NC(=O)[C@H](CCC(N)=O)NC(=O)[C@H](CC(C)C)NC(=O)[C@H](CC(C)C)NC(=O)[C@H](CCCN)NC(=O)[C@H](CCCNC(=N)N)NC(=O)[C@H](C)NC(=O)[C@H](CO)NC(=O)[C@H](CC(C)C)NC(=O)[C@H](CCC(N)=O)NC(=O)[C@H](CC)NC(=O)[C@H](CC(C)C)NC(=O)[C@@H](NC(=O)[C@H](CCCN)NC(=O)[C@H](CCCNC(=N)N)NC(=O)[C@H](Cc1ccc(O)cc1)NC(=O)[C@H](CO)NC(=O)[C@H](CCC(N)=O)NC(=O)[C@@H](NC(=O)[C@H](Cc1ccccc1)NC(=O)[C@@H](NC(=O)[C@H](C)NC(=O)[C@H](CC(=O)O)NC(=O)[C@H](C)NC(=O)[C@H](Cc1ccc(O)cc1)NC)[C@@H](C)CC)[C@@H](C)O)C(C)C)[C@@H](C)CC)C(=O)N[C@@H](CC(=O)O)C(=O)NCCCCNC(=N)N [Peptide P-20356, [N—Me-Tyr^1, Gln^8, Orn^12, Abu^15, Orn^21, Nle^27, Asp^28, Agm^29]hGHRH(1-29) NH2] (H-[NMeY]ADAIFTQSYR[Orn]VL[Abu]QLSAR[Orn]LLQDI[Nle]D-Agmatine) | 59 ± 7.1 | 65 ± 9.3 | significantly increased | 37 ± 2.5 | significantly attenuated; also recorded: substantial reductions | formed tube-like structures similar to wildtype MSCs | 1.07 | 0.91 | 1.22 | 406.0 | 171 | slightly better preserved | 
CCCC[C@H](NC(=O)[C@@H](NC(=O)[C@H](CC(=O)O)NC(=O)[C@H](CCC(N)=O)NC(=O)[C@H](CC(C)C)NC(=O)[C@H](CC(C)C)NC(=O)[C@H](CCCN)NC(=O)[C@H](CCCNC(=N)N)NC(=O)[C@H](C)NC(=O)[C@H](CO)NC(=O)[C@H](CC(C)C)NC(=O)[C@H](CCC(N)=O)NC(=O)[C@H](CC)NC(=O)[C@H](CC(C)C)NC(=O)[C@@H](NC(=O)[C@H](CCCN)NC(=O)[C@H](CCCNC(=N)N)NC(=O)[C@H](Cc1ccc(O)cc1)NC(=O)[C@H](CO)NC(=O)[C@H](CC(N)=O)NC(=O)[C@@H](NC(=O)[C@H](Cc1ccccc1)NC(=O)[C@@H](NC(=O)[C@H](C)NC(=O)[C@H](CC(=O)O)NC(=O)[C@@H](C)NC(=O)[C@H](Cc1ccc(O)cc1)NC)[C@@H](C)CC)[C@@H](C)O)C(C)C)[C@@H](C)CC)C(=O)N[C@@H](CC(=O)O)C(=O)N[C@@H](CCCNC(=N)N)C(=O)NC [Peptide P-27409, [N—Me-Tyr^1, D-Ala^2, Orn^12, Abu^15, Orn^21, Nle^27, Asp^28]hGHRH(1-29)NH—CH3] (H-[NMeY][dA]DAIFTNSYR[Orn]VL[Abu]QLSAR[Orn]LLQDI[Nle]DR-NHMe) | 68 ± 5.5 | 47 ± 5.8 | significantly increased | 42 ± 1.9 |  | formed tube-like structures similar to wildtype MSCs |  |  |  |  |  |  | significantly attenuated; also recorded: substantial reductions

Reference: patent US10555987B2, “GHRH agonists for the treatment of ischemic disorders” (UNIVERSITY OF MIAMI, priority 2012, dated 2020)
